In ChEMBL document CHEMBL1148775, “Synthesis and in vivo evaluation of fluorine-18 and iodine-123 labeled 2beta-carbo(2-fluoroethoxy)-3beta-(4'-((Z)-2-iodoethenyl)phenyl)nortropane as a candidate serotonin transporter imaging agent” (J Med Chem, 2007):

How the values were obtained:
[1] = target: Sodium-dependent dopamine transporter (Homo sapiens, UniProt Q01959); assay: Binding affinity to human DAT expressed in HEK293 cells; assay type: cell-based
[2] = target: Sodium-dependent noradrenaline transporter (Homo sapiens, UniProt P23975); assay: Binding affinity to human NET expressed in HEK293 cells; assay type: cell-based
[3] = Partition coefficient, log P at pH 7.4; assay type: physicochemical; conditions: octanol/water
[4] = target: Sodium-dependent serotonin transporter (Homo sapiens, UniProt P31645); assay: Binding affinity to human SERT expressed in HEK293 cells; assay type: cell-based
[5] = Ratio of drug level in thalamus to cerebellum in cynomolgus monkey after 235 mins; assay type: ADME, tissue-based, Macaca fascicularis; conditions: in vivo
[6] = Ratio of drug level in putamen to cerebellum in cynomolgus monkey after 235 mins; assay type: ADME, tissue-based, Macaca fascicularis; conditions: in vivo
[7] = Ratio of drug level in medulla to cerebellum in cynomolgus monkey after 235 mins; assay type: ADME, tissue-based, Macaca fascicularis; conditions: in vivo
[8] = Ratio of drug level in occipital cortex to cerebellum in cynomolgus monkey after 235 mins; assay type: ADME, tissue-based, Macaca fascicularis; conditions: in vivo
[9] = Ratio of drug level in midbrain to cerebellum in cynomolgus monkey after 235 mins; assay type: ADME, tissue-based, Macaca fascicularis; conditions: in vivo
[10] = Ratio of drug level in caudate to cerebellum in cynomolgus monkey after 235 mins; assay type: ADME, tissue-based, Macaca fascicularis; conditions: in vivo
[11] = Biodistribution in iv dosed Sprague-Dawley rat hippocampus in presence of citalopram at 6 mg/kg after 60 mins; assay type: ADME, organism-based; parameters: dose 6 mg/kg, route intravenous; conditions: read-out: Drug uptake
[12] = Biodistribution in iv dosed Sprague-Dawley rat cerebellum in presence of citalopram at 6 mg/kg after 60 mins; assay type: ADME, organism-based; parameters: dose 6 mg/kg, route intravenous; conditions: read-out: Drug uptake
[13] = Biodistribution in iv dosed Sprague-Dawley rat occipital cortex in presence of reboxetine at 6 mg/kg after 60 mins; assay type: ADME, organism-based; parameters: dose 6 mg/kg, route intravenous; conditions: read-out: Drug uptake
[14] = Biodistribution in iv dosed Sprague-Dawley rat pons in presence of reboxetine at 6 mg/kg after 60 mins; assay type: ADME, organism-based; parameters: dose 6 mg/kg, route intravenous; conditions: read-out: Drug uptake
[15] = Biodistribution in iv dosed Sprague-Dawley rat hypothalamus after 60 mins; assay type: ADME, organism-based; conditions: read-out: Drug uptake
[16] = Biodistribution in iv dosed Sprague-Dawley rat pons in presence of citalopram at 6 mg/kg after 60 mins; assay type: ADME, organism-based; parameters: dose 6 mg/kg, route intravenous; conditions: read-out: Drug uptake
[17] = Biodistribution in iv dosed Sprague-Dawley rat pons after 60 mins; assay type: ADME, organism-based; conditions: read-out: Drug uptake
[18] = Biodistribution in iv dosed Sprague-Dawley rat pre frontal cortex after 60 mins; assay type: ADME, organism-based; conditions: prefrontal cortex, read-out: Drug uptake
[19] = Biodistribution in iv dosed Sprague-Dawley rat pre frontal cortex in presence of RTI-113 at 6 mg/kg after 60 mins; assay type: ADME, organism-based; parameters: dose 6 mg/kg, route intravenous; conditions: prefrontal cortex, read-out: Drug uptake
[20] = Biodistribution in iv dosed Sprague-Dawley rat hippocampus in presence of reboxetine at 6 mg/kg after 60 mins; assay type: ADME, organism-based; parameters: dose 6 mg/kg, route intravenous; conditions: read-out: Drug uptake
[21] = Biodistribution in iv dosed Sprague-Dawley rat cerebellum after 60 mins; assay type: ADME, organism-based; conditions: read-out: Drug uptake
[22] = Biodistribution in iv dosed Sprague-Dawley rat cerebellum in presence of reboxetine at 6 mg/kg after 60 mins; assay type: ADME, organism-based; parameters: dose 6 mg/kg, route intravenous; conditions: read-out: Drug uptake
[23] = Biodistribution in iv dosed Sprague-Dawley rat occipital cortex in presence of citalopram at 6 mg/kg after 60 mins; assay type: ADME, organism-based; parameters: dose 6 mg/kg, route intravenous; conditions: read-out: Drug uptake
[24] = Biodistribution in iv dosed Sprague-Dawley rat hippocampus in presence of RTI-113 at 6 mg/kg after 60 mins; assay type: ADME, organism-based; parameters: dose 6 mg/kg, route intravenous; conditions: read-out: Drug uptake
[25] = Biodistribution in iv dosed Sprague-Dawley rat hypothalamus in presence of citalopram at 6 mg/kg after 60 mins; assay type: ADME, organism-based; parameters: dose 6 mg/kg, route intravenous; conditions: read-out: Drug uptake
Cerebellum = assay: Biodistribution in iv dosed Sprague-Dawley rat cerebellum after 5 mins; assay type: ADME, organism-based; conditions: in vivo
[26] = Biodistribution in iv dosed Sprague-Dawley rat occipital cortex after 60 mins; assay type: ADME, organism-based; conditions: read-out: Drug uptake
[27] = Biodistribution in iv dosed Sprague-Dawley rat hypothalamus in presence of RTI-113 at 6 mg/kg after 60 mins; assay type: ADME, organism-based; parameters: dose 6 mg/kg, route intravenous; conditions: read-out: Drug uptake
[28] = Biodistribution in iv dosed Sprague-Dawley rat striatum in presence of reboxetine at 6 mg/kg after 60 mins; assay type: ADME, organism-based; parameters: dose 6 mg/kg, route intravenous; conditions: read-out: Drug uptake
[29] = Biodistribution in iv dosed Sprague-Dawley rat striatum in presence of citalopram at 6 mg/kg after 60 mins; assay type: ADME, organism-based; parameters: dose 6 mg/kg, route intravenous; conditions: read-out: Drug uptake
[30] = Biodistribution in iv dosed Sprague-Dawley rat striatum in presence of RTI-113 at 6 mg/kg after 60 mins; assay type: ADME, organism-based; parameters: dose 6 mg/kg, route intravenous; conditions: read-out: Drug uptake
[31] = Biodistribution in iv dosed Sprague-Dawley rat hypothalamus in presence of reboxetine at 6mg/kg after 60 mins; assay type: ADME, organism-based; conditions: read-out: Drug uptake
[32] = Biodistribution in iv dosed Sprague-Dawley rat pons in presence of RTI-113 at 6 mg/kg after 60 mins; assay type: ADME, organism-based; parameters: dose 6 mg/kg, route intravenous; conditions: read-out: Drug uptake
[33] = Biodistribution in iv dosed Sprague-Dawley rat cerebellum in presence of RTI-113 at 6 mg/kg after 60 mins; assay type: ADME, organism-based; parameters: dose 6 mg/kg, route intravenous; conditions: read-out: Drug uptake
[34] = Biodistribution in iv dosed Sprague-Dawley rat occipital cortex in presence of RTI-113 at 6 mg/kg after 60 mins; assay type: ADME, organism-based; parameters: dose 6 mg/kg, route intravenous; conditions: read-out: Drug uptake
[35] = Biodistribution in iv dosed Sprague-Dawley rat striatum in after 60 mins; assay type: ADME, organism-based; conditions: read-out: Drug uptake
[36] = Biodistribution in iv dosed Sprague-Dawley rat pre frontal cortex in presence of reboxetine at 6 mg/kg after 60 mins; assay type: ADME, organism-based; parameters: dose 6 mg/kg, route intravenous; conditions: prefrontal cortex, read-out: Drug uptake
[37] = Biodistribution in iv dosed Sprague-Dawley rat hippocampus after 60 mins; assay type: ADME, organism-based; conditions: read-out: Drug uptake
[38] = Biodistribution in iv dosed Sprague-Dawley rat pre frontal cortex in presence of citalopram at 6 mg/kg after 60 mins; assay type: ADME, organism-based; parameters: dose 6 mg/kg, route intravenous; conditions: prefrontal cortex, read-out: Drug uptake

Sequence of Sodium-dependent serotonin transporter (P31645 whole entry): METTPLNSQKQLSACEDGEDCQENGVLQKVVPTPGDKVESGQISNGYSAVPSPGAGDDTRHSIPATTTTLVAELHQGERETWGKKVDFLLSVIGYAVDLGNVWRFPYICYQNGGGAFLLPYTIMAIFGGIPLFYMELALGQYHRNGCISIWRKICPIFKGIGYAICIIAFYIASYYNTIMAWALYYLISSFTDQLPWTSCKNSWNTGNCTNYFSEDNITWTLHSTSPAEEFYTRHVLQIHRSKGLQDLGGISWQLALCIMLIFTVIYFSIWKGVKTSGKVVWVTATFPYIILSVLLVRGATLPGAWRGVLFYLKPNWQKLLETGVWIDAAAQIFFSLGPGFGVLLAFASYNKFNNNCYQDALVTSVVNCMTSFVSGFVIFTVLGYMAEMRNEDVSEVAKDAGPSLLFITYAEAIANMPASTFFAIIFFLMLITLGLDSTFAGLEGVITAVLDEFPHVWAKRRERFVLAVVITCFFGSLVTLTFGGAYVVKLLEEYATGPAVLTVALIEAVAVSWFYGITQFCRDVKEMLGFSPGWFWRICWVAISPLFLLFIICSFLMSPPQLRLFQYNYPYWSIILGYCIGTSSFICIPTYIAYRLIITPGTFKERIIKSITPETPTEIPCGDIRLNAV
Sequence of Sodium-dependent noradrenaline transporter (P23975 whole entry): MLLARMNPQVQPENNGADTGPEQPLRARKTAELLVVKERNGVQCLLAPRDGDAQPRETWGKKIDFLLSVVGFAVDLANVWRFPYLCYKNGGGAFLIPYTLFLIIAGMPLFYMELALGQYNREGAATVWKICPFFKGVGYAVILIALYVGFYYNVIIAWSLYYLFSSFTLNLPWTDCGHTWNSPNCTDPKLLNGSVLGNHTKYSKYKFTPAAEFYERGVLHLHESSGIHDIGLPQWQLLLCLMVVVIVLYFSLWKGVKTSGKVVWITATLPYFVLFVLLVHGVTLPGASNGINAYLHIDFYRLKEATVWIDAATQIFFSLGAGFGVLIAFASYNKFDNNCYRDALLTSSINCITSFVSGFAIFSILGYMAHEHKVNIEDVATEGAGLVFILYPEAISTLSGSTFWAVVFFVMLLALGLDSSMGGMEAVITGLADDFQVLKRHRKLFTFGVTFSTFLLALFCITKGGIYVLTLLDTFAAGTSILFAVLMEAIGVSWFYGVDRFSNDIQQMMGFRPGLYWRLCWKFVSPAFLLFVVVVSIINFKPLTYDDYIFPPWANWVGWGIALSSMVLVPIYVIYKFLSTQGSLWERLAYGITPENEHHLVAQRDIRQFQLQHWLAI
Sequence of Sodium-dependent dopamine transporter (Q01959 whole entry): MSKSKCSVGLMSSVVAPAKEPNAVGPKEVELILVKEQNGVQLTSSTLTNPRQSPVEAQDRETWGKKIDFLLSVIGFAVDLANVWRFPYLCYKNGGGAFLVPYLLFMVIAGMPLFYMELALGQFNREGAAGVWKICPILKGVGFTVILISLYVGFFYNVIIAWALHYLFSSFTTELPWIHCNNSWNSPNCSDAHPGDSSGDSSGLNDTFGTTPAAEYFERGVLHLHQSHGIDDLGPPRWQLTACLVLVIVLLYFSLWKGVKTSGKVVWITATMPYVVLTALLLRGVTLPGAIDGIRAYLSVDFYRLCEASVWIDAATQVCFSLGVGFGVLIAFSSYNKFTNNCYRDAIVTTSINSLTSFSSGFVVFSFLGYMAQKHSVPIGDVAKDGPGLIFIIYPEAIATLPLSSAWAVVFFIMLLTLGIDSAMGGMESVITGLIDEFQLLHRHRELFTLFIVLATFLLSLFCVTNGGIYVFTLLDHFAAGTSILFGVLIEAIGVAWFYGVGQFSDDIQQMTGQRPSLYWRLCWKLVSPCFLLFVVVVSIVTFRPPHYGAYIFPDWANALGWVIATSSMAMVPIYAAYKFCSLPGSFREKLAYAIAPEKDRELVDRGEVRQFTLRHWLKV

`O=C(OCCF)C1C2CCC(CC1c1ccc(/C=C\I)cc1)N2` (centres undefined) showed a Ki [1] of 13 nM, a Ki [2] of 28 nM and a logD [3] of 1.8. For the same compound, the Ki [4] was 0.08 nM.
With `O=C(OCC[18F])C1C2CCC(CC1c1ccc(/C=C\I)cc1)N2` (centres undefined) the Ratio [5] was 3.3, the Ratio [6] was 3.8 and the Ratio [7] was 3.3. For the same compound, the Ratio [8] was 1.6, the Ratio [9] was 4.4 and the Ratio [10] was 2.6.
Work on `O=C(OCCF)C1C2CCC(CC1c1ccc(/C=C\[123I])cc1)N2` (centres undefined) yielded a tissue uptake at 1 h [11] of 0.16 %ID/g, a tissue uptake at 1 h [12] of 0.11 %ID/g and a tissue uptake at 1 h [13] of 0.23 %ID/g. It also gave a tissue uptake at 1 h [14] of 0.2 %ID/g, a tissue uptake at 1 h [15] of 0.27 %ID/g and a tissue uptake at 1 h [16] of 0.14 %ID/g. For the same compound, the tissue uptake at 1 h [17] was 0.22 %ID/g, the tissue uptake at 1 h [18] was 0.26 %ID/g and the tissue uptake at 1 h [19] was 0.28 %ID/g. The tissue uptake at 1 h [20] was 0.23 %ID/g, the tissue uptake at 1 h [21] was 0.12 %ID/g and the tissue uptake at 1 h [22] was 0.13 %ID/g. The tissue uptake at 1 h [23] was 0.16 %ID/g, the tissue uptake at 1 h [24] was 0.25 %ID/g and the tissue uptake at 1 h [25] was 0.18 %ID/g. It also gave a Drug uptake (Cerebellum) of 0.24 % ID/g, a tissue uptake at 1 h [26] of 0.24 %ID/g and a tissue uptake at 1 h [27] of 0.32 %ID/g. It also gave a tissue uptake at 1 h [28] of 0.26 %ID/g, a tissue uptake at 1 h [29] of 0.15 %ID/g and a tissue uptake at 1 h [30] of 0.26 %ID/g. For the same compound, the tissue uptake at 1 h [31] was 0.26 %ID/g, the tissue uptake at 1 h [32] was 0.22 %ID/g and the tissue uptake at 1 h [33] was 0.12 %ID/g. For the same compound, the tissue uptake at 1 h [34] was 0.24 %ID/g, the tissue uptake at 1 h [35] was 0.25 %ID/g and the tissue uptake at 1 h [36] was 0.28 %ID/g. For the same compound, the tissue uptake at 1 h [37] was 0.24 %ID/g and the tissue uptake at 1 h [38] was 0.17 %ID/g.
